Results reported in patent US6344208B1, “Pheromone baits for social insects” (priority 1989, dated 2002).

How the values were obtained:
Assay type in all cases: in vivo
[1] = test system: Atta sexdens; assay: Field Trial 3: Mirex sachets with single pheromone component placed 1 metre from nest entrance on active trails; conditions: Trial 3, 50 μl component on rubber septum, components tested separately
Procedure: (§1) The insecticide bait Mirex was used in all the trials. In Trials 3 and 4 the bait was presented to the ants in black plastic sachets 8 cm^2 placed inside wire cages, which provided protection from cattle, horses, small manamals and birds. The empty cages were placed in the field 24 hours prior to the start of the experiment. The Mire sachets were prepared and a component of mandibular gland alarm pheromone of the ant species concerned was added to the treatment sachets. In Trial 5 the sachets were not placed in cages but were scattered randomly at the cutting site. Five components or the alarm pheromone were tested. Rubber septa, used to provide a slow-release substrate, were dosed with 50 μl of component and then sealed inside the Mirex sachets. Control sachets were sealed with untreated rubber septa. The sachets were transferred immediately to the field sites. The fate of the sachets was then monitored over a 3 day period.
Trial 3: Sachets were placed 1 metre from the nest entrance hole on active trials of A. sexdens. Five synthetic components of the alarm pheromone were tested, separately; citral, farnesol, 6-methyl-5-hepten-2-one, 4-methyl-3-heptanone and geraniol. […] The results for the five synthetic pheromones were pooled.

[2] = test system: Atta sexdens; assay: Field Trial 5: Mirex sachets with single pheromone component scattered randomly at cutting site; conditions: Trial 5, 50 μl component; for discovery and opening of sachets: sachets over about 10 m^2 where ants were cutting leaves
Procedure: as §1
Trial 5: Sachets containing, separately, citral (E), 4-methyl-3-heptanone H and 6-methyl-5-hepten-2-one (G) were distributed randomly over an area of about 10 m^2 where ants were actively cutting leaves.

[3] = test system: Acromyrmex octospinosus; assay: Research and laboratory trials on behaviour induced by synthetic alarm pheromone components; conditions: research by the applicant
Source text: Recent research by the applicant on the neotropical leaf-cutting ant Acromyrmex octospinosus has shown that […] components of the alarm pheromone of this ant, namely 3-octanol and 3-octanone, attract nestmates and induce the laying of trails around the source which ensure that nestmates are then attracted towards the source for some time and attack the source on arrival.
It is expected that this surprising effect will be shown by synthetic components of pheromones of other insects, especially social insects.
The synthetic pheromone compounds may therefore be used in food baits in contrast to what would be expected.

Row | Structure (SMILES) | fate of test sachets [1] | discovery and opening of sachets [2] | behaviour induced in nestmates by the alarm pheromone component [3] | time until all the bait had been transported back to the nest [2] [min]
1 | CC(=O)CCC=C(C)C [6-methyl-5-hepten-2-one] | cut open and the contents transported into the nest | discovered and opened immediately |  | 
2 | CCCCCC(=O)CC [3-octanone] |  |  | mainly causes recruitment of ants from the peripheral area | 
3 | CC(C)=CCCC(C)=CCCC(C)=CCO [farnesol] | cut open and the contents transported into the nest |  |  | 
4 | CCCCCC(O)CC (centres unmarked) [3-octanol] |  |  | mainly controls attraction to the source, the laying of pheromone trails radiating out from the source, and biting | 
5 | CCCC(C)C(=O)CC (centres unmarked) [4-methyl-3-heptanone] | cut open and the contents transported into the nest | discovered and opened immediately |  | ≤ 30
6 | CC(C)=CCCC(C)=CC=O [citral] | cut open and the contents transported into the nest | discovered and opened immediately |  | 
7 | CC(C)=CCC/C(C)=C/CO [geraniol] | cut open and the contents transported into the nest |  |  | 
